Here are results for 2 compounds from paper PMC3266923, “Augmenter of Liver Regeneration (alr) Promotes Liver Outgrowth during Zebrafish Hepatogenesis” (PLoS ONE, 2012).

SMILES strings stand for the structures.

The target of assay [1] is T1, zebrafish Alr (Danio rerio, UniProt A4QNU9).
T1 construct: gene gfer; full-length ORF (191 residues) in pET28b, N-terminal His-tag, expressed in E. coli BL21-DE3, Ni-NTA purified under native condition; about 23 kDa monomer, disulfide-linked dimer
The experiment in a line: UV-visible absorption spectrum of purified protein. The class given is binding. Conditions: 15 uM protein, free FAD as reference; FAD co-purified from E. coli.

In assay [2] the target is T2, zebrafish Alr (Danio rerio, UniProt A4QNU9, C131S).
T2 construct: gene gfer; full-length ORF (191 residues) in pET28b, N-terminal His-tag, expressed in E. coli BL21-DE3, Ni-NTA purified under native condition; about 23 kDa monomer, disulfide-linked dimer
T2 sequence (A4QNU9 1-191 C131S): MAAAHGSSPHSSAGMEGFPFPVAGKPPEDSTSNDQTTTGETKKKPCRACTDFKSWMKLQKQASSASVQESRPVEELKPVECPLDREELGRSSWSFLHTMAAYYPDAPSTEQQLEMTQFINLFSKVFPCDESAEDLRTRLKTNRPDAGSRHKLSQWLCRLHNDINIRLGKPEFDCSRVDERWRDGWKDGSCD
The experiment in a line: UV-visible absorption spectrum of purified protein. The assay is classed as binding. Conditions: 15 uM protein, free FAD as reference; FAD co-purified from E. coli.

The target in assay [3] is T1, zebrafish Alr. The experiment in a line: Ellman's reagent (free thiol) time course. The class given is biochemical. Conditions: room temperature. A general note: DTNB colorimetry detects thiols as they appear.

T1 sequence (A4QNU9 1-191): as the sequence (A4QNU9 1-191 C131S) above, with S131C counted along it

For `Cc1cc2nc3c(=O)[nH]c(=O)nc-3n(C[C@H](O)[C@H](O)[C@H](O)COP(=O)(O)OP(=O)(O)OC[C@H]3O[C@@H](n4cnc5c(N)ncnc54)[C@H](O)[C@@H]3O)c2cc1C` [FAD], the “UV-visible absorption spectrum of purified protein” value on zebrafish Alr [1] was “Zebrafish Alr also binds FAD as determined by spectroscopic absorption”; at zebrafish Alr [2], “wild type Alr protein and mutant Alr^C131S protein are characteristic of the FAD moiety”.
Turning to `OC(CS)C(O)CS` (stereo not drawn) [DTT], the “Ellman's reagent (free thiol) time course” value on zebrafish Alr [3] is given as “Zebrafish Alr oxidized DTT efficiently, while Alr^C131S completely lost this activity”.
